Series [1] has as its target T1, WT rat cPEPCK (Rattus norvegicus, UniProt P07379).
T1 sequence (P07379 1-622): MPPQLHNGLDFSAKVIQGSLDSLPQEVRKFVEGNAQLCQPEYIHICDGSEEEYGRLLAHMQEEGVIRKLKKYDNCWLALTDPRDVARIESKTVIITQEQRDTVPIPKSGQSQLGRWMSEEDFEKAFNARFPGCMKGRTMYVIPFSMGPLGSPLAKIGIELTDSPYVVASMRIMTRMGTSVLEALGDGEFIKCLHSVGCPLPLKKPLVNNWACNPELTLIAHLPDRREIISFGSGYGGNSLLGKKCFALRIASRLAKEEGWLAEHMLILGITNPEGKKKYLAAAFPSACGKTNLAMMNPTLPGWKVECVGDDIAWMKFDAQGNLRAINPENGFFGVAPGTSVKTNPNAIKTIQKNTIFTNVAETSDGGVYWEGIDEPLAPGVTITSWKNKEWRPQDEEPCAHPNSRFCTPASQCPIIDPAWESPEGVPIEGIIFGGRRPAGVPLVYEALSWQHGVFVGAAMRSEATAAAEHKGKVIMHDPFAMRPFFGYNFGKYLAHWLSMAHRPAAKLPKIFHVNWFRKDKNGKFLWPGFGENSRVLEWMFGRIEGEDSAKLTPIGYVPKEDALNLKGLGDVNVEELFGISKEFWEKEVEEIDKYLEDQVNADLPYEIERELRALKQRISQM
The series can be described thus: Assay B: PEP+GDP+CO2→OAA+GTP, coupled MDH assay. It is filed as biochemical. As to conditions: Wild-type, 25 °C.

Series [2] deals with T2, A467G PEPCK (rat cPEPCK mutant) (Rattus norvegicus, UniProt P07379, A467G).
T2 sequence (P07379 1-622 A467G): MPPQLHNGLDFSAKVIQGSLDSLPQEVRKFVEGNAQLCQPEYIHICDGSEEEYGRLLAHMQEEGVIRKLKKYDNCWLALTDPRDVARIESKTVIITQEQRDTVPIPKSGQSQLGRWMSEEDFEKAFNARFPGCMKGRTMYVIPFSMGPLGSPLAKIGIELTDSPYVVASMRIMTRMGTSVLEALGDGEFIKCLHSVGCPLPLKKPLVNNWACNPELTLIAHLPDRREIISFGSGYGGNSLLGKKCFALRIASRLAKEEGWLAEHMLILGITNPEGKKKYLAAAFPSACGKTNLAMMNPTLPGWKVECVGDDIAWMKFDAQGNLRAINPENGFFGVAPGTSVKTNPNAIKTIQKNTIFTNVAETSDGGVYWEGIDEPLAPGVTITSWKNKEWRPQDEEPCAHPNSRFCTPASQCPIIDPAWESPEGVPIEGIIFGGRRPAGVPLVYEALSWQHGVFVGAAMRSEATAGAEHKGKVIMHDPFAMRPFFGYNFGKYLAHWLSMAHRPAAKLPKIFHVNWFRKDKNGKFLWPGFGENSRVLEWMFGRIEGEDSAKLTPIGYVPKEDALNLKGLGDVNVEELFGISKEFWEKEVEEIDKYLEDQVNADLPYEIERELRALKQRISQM
The series can be described thus: Assay B: PEP+GDP+CO2→OAA+GTP, coupled MDH assay. The series is classed as biochemical.

Series [3] addresses T2, A467G PEPCK (rat cPEPCK mutant). The series can be described thus: Assay A: OAA+GTP→PEP+CO2+GDP, coupled PK/LDH assay. The series is classed as biochemical.
Series [4] addresses T1, WT rat cPEPCK. The series can be described thus: Assay A: OAA+GTP→PEP+CO2+GDP, coupled PK/LDH assay. The series is classed as biochemical.
Series [5] has as its target T1, WT rat cPEPCK. The series can be described thus: Assay C: OAA+GTP→pyruvate+GTP+CO2. It is filed as biochemical. To be noted: WT PEPCK; GTPγS in place of GTP.
Series [6] addresses T2, A467G PEPCK (rat cPEPCK mutant). The series can be described thus: Assay D: OAA+GDP→pyruvate+GDP+CO2. The series is classed as biochemical.
The target of series [7] is T1, WT rat cPEPCK. The series can be described thus: Inhibitor assays with substrate analogues.
Series [8] deals with T2, A467G PEPCK (rat cPEPCK mutant). The series can be described thus: Inhibitor assays with substrate analogues. As to conditions: for change in affinity, A467G vs WT: from Ki values of the inhibition experiments.
Another series concerns the target PEPCK. As to conditions: pyruvate only weakly associates with PEPCK; cited from earlier work.
Substrate in series [9]: O=C(O)CC(=O)C(=O)O
The series can be described thus: purified protein, by the assay type. It is filed as biochemical, rat. As to conditions: OAA + GDP → Pyruvate + GDP + CO2, 25 °C.

Setting [10] is: WT PEPCK, slow substrate GTPγS in place of GTP, OAA→PEP.

The text below walks through data of publication PMC2893389 (Biochemistry, 2010).

Several values for one entry are separate records, joined by “and”; a condition that tells them apart may be missing. Identical values can stand only once. Like-named read-outs stand apart in the source and are kept apart here.

Turning to `O=C=O` [CO2], the Km (in general, the concentration of substrate that gives half-maximal velocity) stood at 1190 ± 109 µM at WT rat cPEPCK [1] (labelled substrate varied) and 814 ± 98 µM in series [2] (A467G, PEP + CO2 + GDP → OAA + GTP, 25 °C, labelled substrate varied).

Turning to `Nc1nc2c(ncn2[C@@H]2O[C@H](COP(=O)(O)OP(=O)(O)O)[C@@H](O)[C@H]2O)c(=O)[nH]1` [GDP, guanosine-5′-diphosphate], the “kcat/KM of A467G as % of WT” value in series [2] (assay B, PEP→OAA) was 3%.

For the molecule `Nc1nc2c(ncn2[C@@H]2O[C@H](COP(=O)(O)OP(=O)(O)OP(=O)(O)O)[C@@H](O)[C@H]2O)c(=O)[nH]1` [GTP, guanosine-5′-triphosphate], in series [3] (assay A, OAA→PEP), the “change in KM, A467G vs WT (factor)” value came to 1.4 and the “decrease in kcat/KM, A467G vs WT” value is listed as “less than a factor of three”.

With `Nc1nc2c(ncn2[C@@H]2O[C@H](COP(=O)(O)OP(=O)(O)OP(O)(O)=S)[C@@H](O)[C@H]2O)c(=O)[nH]1` [GTPγS, guanosine 5′-O-[gamma-thio]triphosphate], on WT rat cPEPCK [4] (setting [10]), the Michaelis-Menten constant (Km) was determined as 39 µM; the kcat (usually the number of substrate molecules converted per active site and unit of time at saturation) amounted to 13 s⁻¹. In addition, the “pyruvate formation during the OAA→PEP reaction” value at WT rat cPEPCK [5] is recorded as “did not observe any pyrvuate formation”.

Turning to `O=C(O)CC(=O)C(=O)O` [OAA, oxaloacetic acid], the “kcat/KM of A467G as % of WT” value in series [3] (assay A, OAA→PEP) is 1.9% and 2%. Moreover, the “KM of A467G relative to WT” value in [3] (assay A, OAA→PEP, higher in A467G) came out at 14 fold. For the same molecule, the “efficiency of WT relative to A467G at catalyzing decarboxylation of OAA” value in series [6] amounted to 20 fold.

Turning to `C=C(OP(=O)(O)O)C(=O)O` [PEP, phosphoenolpyruvate], in [2] (assay B, PEP→OAA), the “KM of A467G as % of WT” value was 21% and ~ 21%; the “reduction in catalytic efficiency of A467G relative to WT” value is on record as “factor of four”.

In the case of `O=C(O)COP(=O)(O)O` [PGA, 2-phosphoglycolate], the inhibitory constant (Ki) (as a rule, the equilibrium dissociation constant of an inhibitor or competing ligand from its target) at WT rat cPEPCK [7] (Wild-type, assay B, against PEP, 25 °C) came to 2530 ± 13 µM. For the same molecule, in [8], the “change in affinity, A467G vs WT” value is reported as “increases by less than a factor of two”.

On WT rat cPEPCK [7], `O=C(O)C(=O)O` [oxalate] returned a Ki of 106 ± 6 µM. Moreover, the “change in affinity, A467G vs WT” value in series [8] is “approximately a factor of eight”. Besides, the “loss in binding energy / decreased stabilization in A467G vs WT” value in series [8] (from oxalate Ki, extrapolated to the enolate intermediate) is on record as ~ 5.3 kJ mol^−1.

With `CC(=O)C(=O)O` [pyruvate], on PEPCK, the Ki is 9000 µM.

As to `O=C(O)C(=O)CS(=O)(=O)O` [βSP, 3-sulfopyruvate], the Ki on WT rat cPEPCK [7] (Wild-type, assay A, against OAA, competitive (slope) Ki, 25 °C) came out at 26 ± 1 µM. In addition, the “change in affinity, A467G vs WT” value in [8] is given as “factor of approximately two”.

B1: WT rat cPEPCK (Rattus norvegicus) (protein)
chain: MPPQLHNGLDFSAKVIQGSLDSLPQEVRKFVEGNAQLCQPEYIHICDGSEEEYGRLLAHMQEEGVIRKLKKYDNCWLALTDPRDVARIESKTVIITQEQRDTVPIPKSGQSQLGRWMSEEDFEKAFNARFPGCMKGRTMYVIPFSMGPLGSPLAKIGIELTDSPYVVASMRIMTRMGTSVLEALGDGEFIKCLHSVGCPLPLKKPLVNNWACNPELTLIAHLPDRREIISFGSGYGGNSLLGKKCFALRIASRLAKEEGWLAEHMLILGITNPEGKKKYLAAAFPSACGKTNLAMMNPTLPGWKVECVGDDIAWMKFDAQGNLRAINPENGFFGVAPGTSVKTNPNAIKTIQKNTIFTNVAETSDGGVYWEGIDEPLAPGVTITSWKNKEWRPQDEEPCAHPNSRFCTPASQCPIIDPAWESPEGVPIEGIIFGGRRPAGVPLVYEALSWQHGVFVGAAMRSEATAAAEHKGKVIMHDPFAMRPFFGYNFGKYLAHWLSMAHRPAAKLPKIFHVNWFRKDKNGKFLWPGFGENSRVLEWMFGRIEGEDSAKLTPIGYVPKEDALNLKGLGDVNVEELFGISKEFWEKEVEEIDKYLEDQVNADLPYEIERELRALKQRISQM
B1: the kcat was 54 ± 0.2 s⁻¹ in the series with WT rat cPEPCK [4] (Wild-type, OAA + GTP → PEP + GDP + CO2, 25 °C); 19 ± 0.8 s⁻¹ in the series with WT rat cPEPCK [1]; 2.3 ± 0.1 s⁻¹ in [9] (other: Wild-type). For the same molecule, the Km in series [9] (other: Wild-type) turned out to be 117 ± 11 µM. For the same molecule, the kcat/Km (usually the second-order rate constant that governs catalysis at low substrate concentration) in series [9] (other: Wild-type) is 20000 M⁻¹ s⁻¹.

B2: A467G PEPCK (rat cPEPCK mutant) (Rattus norvegicus; A467G) (protein)
chain: MPPQLHNGLDFSAKVIQGSLDSLPQEVRKFVEGNAQLCQPEYIHICDGSEEEYGRLLAHMQEEGVIRKLKKYDNCWLALTDPRDVARIESKTVIITQEQRDTVPIPKSGQSQLGRWMSEEDFEKAFNARFPGCMKGRTMYVIPFSMGPLGSPLAKIGIELTDSPYVVASMRIMTRMGTSVLEALGDGEFIKCLHSVGCPLPLKKPLVNNWACNPELTLIAHLPDRREIISFGSGYGGNSLLGKKCFALRIASRLAKEEGWLAEHMLILGITNPEGKKKYLAAAFPSACGKTNLAMMNPTLPGWKVECVGDDIAWMKFDAQGNLRAINPENGFFGVAPGTSVKTNPNAIKTIQKNTIFTNVAETSDGGVYWEGIDEPLAPGVTITSWKNKEWRPQDEEPCAHPNSRFCTPASQCPIIDPAWESPEGVPIEGIIFGGRRPAGVPLVYEALSWQHGVFVGAAMRSEATAGAEHKGKVIMHDPFAMRPFFGYNFGKYLAHWLSMAHRPAAKLPKIFHVNWFRKDKNGKFLWPGFGENSRVLEWMFGRIEGEDSAKLTPIGYVPKEDALNLKGLGDVNVEELFGISKEFWEKEVEEIDKYLEDQVNADLPYEIERELRALKQRISQM
As for B2, the kcat in series [3] (A467G, OAA + GTP → PEP + GDP + CO2, 25 °C) was 14 ± 0.1 s⁻¹. Moreover, the kcat in series [2] (A467G, PEP + CO2 + GDP → OAA + GTP, 25 °C) stood at 1 ± 0.1 s⁻¹. Also, in series [9] (other: A467G), the Michaelis-Menten constant (Km) was 970 ± 118 µM, the kcat turned out to be 1.3 ± 0.1 s⁻¹ and the kcat/Km was 1000 M⁻¹ s⁻¹.
